One data set has as its system MT-4 cells. Kind of data set: Cytotoxicity assay. In kind it is cell-based. Conditions: for cytotoxicity (in words): text: toward HepG2 cells, table head and method say MT-4.
In data set [1] the test system is HBV. Kind of data set: Anti-HBV assay in HepG2 2.2.15 cells. In kind it is cell-based. Particulars: for EC50: Hepatitis B virus, HepG2 2.2.15, 144 h, read-out: EC50 anti-HBV activity.
The test system of data set [2] is HBV. Particulars: relative to entecavir 1; ref 3a; cited from earlier work.

For “9-[Bis-O-(pivaloyoxymethyl)phosphorylmethoxy]allyl]guanine [Compound 8]”, the “cytotoxicity (in words)” value with MT-4 cells is listed as “cytotoxicity toward HepG2 cells was also observed”.
Broadly, the EC50 is the midpoint of the concentration-response curve. On to `C=C(CCO)Cn1cnc2c(=O)[nH]c(N)nc21` [Compound 6, 2-Amino-9-(4-hydroxy-2-methylenebutyl)-1H-purin-6(9H)-one], for which, in the data set with HBV [1] (HepG2 2.2.15 cells), the “anti-HBV activity (in words)” value is on record as “neither exhibit anti-HBV activity”. The EC50 in the data set on HBV [1] is greater than 1000 nM. Besides, the “cytotoxicity (in words)” value in the data set with MT-4 cells is recorded as “nor display any cytotoxicity”.
Turning to `C=C1[C@H](CO)[C@@H](O)C[C@@H]1n1cnc2c(=O)[nH]c(N)nc21` [Entecavir, entecavir, reference compound], the EC50 in the data set with HBV [1] is 0.77 nM.
On to `Nc1nc2c(ncn2[C@H]2C[C@@H](CO)[C@H](O)C2)c(=O)[nH]1` [carbocyclic dG], for which the “potency, times less than that of entecavir (1)” value in the data set on HBV [2] is on record as 10 times.
As to `CC(C)(C)C(=O)O` [pivalic acid, reference compound], the “concentration up to which no cytotoxicity was shown” value with MT-4 cells (in this assay system) is greater than 100 µM.
